The values that follow are results of earlier work, collected in paper PMC6823370, “A novel nucleoside rescue metabolic pathway may be responsible for therapeutic effect of orally administered cordycepin” (Scientific Reports, 2019).

Values after ≈ are worked out from the molar mass of the structure shown.

Details of the data set: method as in PMID 28560504. Particulars: previously reported; cited from earlier work.

Regarding `Nc1ncnc2c1ncn2[C@@H]1O[C@H](CO)C[C@H]1O` [cordycepin, 3′-deoxyadenosine], the solubility in water was 5000 ± 100 µg/mL (≈ 19.9 mM).
